Measurements as given in patent US20210147932A1, “FLUORESCENT PROBES FOR QUANTIFICATION OF DNA DAMAGE AND REPAIR” (The Board of Trustees of the Leland Stanford Junior …, priority 2019, published 2021).
Entries after “also recorded” stand apart in the source; their conditions may differ.

Tests used:
NTH1 = molecular target: T1, NTH1 (Homo sapiens, UniProt P78549); assay: NTH1 coupled assay with 5-hydroxycytosine DNA hairpin; format: biochemical; conditions: NTH1 500 nM, 5hC DNA substrate 60 μM, CCVJ1 20 μM
T1 construct: purchased Novus biologics
T1 sequence (P78549 23-304): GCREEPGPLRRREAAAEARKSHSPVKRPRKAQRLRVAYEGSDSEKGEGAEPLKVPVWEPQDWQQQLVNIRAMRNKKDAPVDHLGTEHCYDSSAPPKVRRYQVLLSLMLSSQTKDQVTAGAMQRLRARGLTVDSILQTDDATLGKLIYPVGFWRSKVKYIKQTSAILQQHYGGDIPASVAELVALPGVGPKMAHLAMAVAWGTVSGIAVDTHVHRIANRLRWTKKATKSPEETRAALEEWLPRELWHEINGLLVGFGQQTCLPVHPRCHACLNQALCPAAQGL
Procedure: FIG. 15, panels A-G provides quantitative coupled assays using Compound (1) (CCJV1). Shown are data from reaction of lesion containing substrates with UNG and SMUG1 (5 nM) (panel A), MPG (100 nM) (panel B), NTH1 (500 nM) (panel C), OGG1 (100 nM) in real-time (panel D) with lesion containing DNA (2 μM) and CCVJ1 (20 μM) (panels A, B and D) or lesion containing DNA (60 μM) and CCVJ1 (20 μM) […]. […] Delay time tss of 25 minutes indicated with dotted line.
FIG. 16 provides time course of NTH1 (500 nM) with 5-hydroxycytosine containing DNA (60 μM) and Compound (1) (CCVJ1) (20 μM). […] Following a 10-minute incubation period, additional substrate was then added (20 μM) which yielded an increase in fluorescence.
Based on the results of our neighboring base effect study, several glycosylase oligonucleotide substrates were purchased or prepared in which the identity of the base lesion X was varied to correspond to the known activities of different target glycosylases (FIG. 15, panel E). For these studies human enzymes SMUG1/UNG, OGG1, MPG and NTH1, were chosen which represent a diverse array of human glycosylases. […] Assays were carried out in a 60 μL volume in a 384 well format on a microplate reader using a fluorescein filter set. For each enzyme, it was possible to observe a robust fluorescence signal (FIG. 15, panels A-D). […]

[1] = Absorption spectra of free and AP site bound probe; format: physicochemical; conditions: in buffer
Excerpt: FIG. 24 provides normalized absorption spectra of free Compound (1) (CCJV1 probe) and AP site bound probe in buffer. Oxime formation with the AP site red shifts absorption from a λmax of 454 nm in the unbound probe to a λmax of 468 nm in the bound probe. The extinction coefficient calculated for the unbound probe is 30,400 M^−1·cm^−1 and 28,700 M^−1·cm^−1 for the bound probe.
Instrumentation: NMR spectra were acquired on a Varian Inova 400 (400 MHz) or 500 (500 MHz) spectrometer and chemical shift reported in parts per million (6) relative to internal standard TMS (0 ppm). Small molecule mass spectra were measured on a Waters 2795 system via electrospray ionization (ESI) with a ZQ single quadrupole MS. Oligonucleotide mass spectra were acquired by MALDI-TOF using a Bruker Microflex MALDI-TOF in negative ion mode. Ultraviolet spectra were measured on a Cary 300. Fluorescence emission and excitation spectra were recorded on a Jobin Yvon-Spex Fluorolog 3 spectrometer with an external temperature controller. Fluorescence time courses were collected on a Fluoroskan Ascent Microplate Fluorometer (Thermo Fisher Scientific). Oligonucleotide concentrations were determined by UV-absorption on a NanoDrop One Microvolume UV-Vis Spectrophotometer (ThermoFisher Scientific). DNA synthesis was carried out on an Applied Biosystems 394 DNA/RNA synthesizer.

[2] = tested on: non-lesion containing DNA hairpin (undamaged double stranded DNA); assay: Fluorescence of probe with non-lesion DNA hairpin (non-covalent); format: binding; conditions: 5 μM probe, 20 μM DNA; over free probe
Procedure: (§1) FIG. 9 provides interaction between Compound (1) (CCVJ1) and DNA. […] (Ex. 485, Em. 538).
(§2) To further explore the hypothesis that the oxime rate acceleration in these AP-site DNAs was related to base stacking interactions, the fluorescence was measured of CCVJ1 in the presence and absence of a non-lesion containing DNA hairpin.

AP site-containing DNA = assay: Competition for oxime formation between CCVJ1 and AP site-containing DNA; format: biochemical
Procedure: FIG. 6 provides effect of adding exemplary linker NH2CH2CH2ONH2 to the reaction of Compound (1) (CCVJ1) (5 μM) with AP site containing DNA (20 μM) in buffer.
as §1
FIG. 14 provides effect of competing aldehydes/ketones on maximum fluorescence signal.
Additional experiments were performed to study the origins of this unusually rapid reaction. […] To test the effect that proximity between the alkoxyamine and planar portion of the probe had on oxime kinetics in our probes, probes were synthesized having variable-length linkers (CCVJ2 and CCVJ3) from aldehyde reactive linkers L2 and L3 respectively (FIG. 2A). […] To test the importance of a double-stranded DNA structure to the rate and fluorescence response, an AP-containing single-stranded DNA oligonucleotide was reacted with CCVJ1. At pH 7, CCVJ1 reacted with a second-order rate constant of 33 M^−1s^−1 with the single-stranded substrate, roughly 5-fold slower than a double-stranded hairpin with identical sequence context (FIG. 8).
as §2
(§3) Since the probe design involves conformational restriction to induce a light-up signal, it was hypothesized that off-target oxime formation with small molecules might induce a relatively small signal relative to DNA, thus providing a measure of selectivity in signaling. […] Another potential aspect is that ketones or aldehydes in the environment might compete with the DNA AP site to react with the aminooxy group, thereby consuming the free probe and reducing the maximum signal. Initial testing of the reactivity of CCVJ1 with AP site-containing DNA in the presence of increasing amounts of competing 2-deoxyribose, the closest small-molecule analogue to the DNA AP site. […] This was repeated this experiment with pyruvic acid, a highly reactive ketone and a common cellular metabolite.

[3] = Off-target light-up with small-molecule carbonyl species; conditions: 5 μM CCVJ1, 500 μM carbonyl species, 37° C.
Procedure: FIG. 13 provides fluorescence response of 5 μM Compound (1) (CCVJ1) with 500 μM of various biologically relevant carbonyl species after 1 h incubation in buffer at 37° C. […] (Ex. 485, Em. 538)
as §3

N#C/C(=C\c1cc2c3c(c1)CCCN3CCC2)C(=O)NCCON [CCVJ1]
overall fold change of fluorescence with NTH1 (NTH1): 20 fold | absorption λmax, AP site bound probe [1]: 468 nm | absorption λmax, unbound probe [1]: 454 nm | extinction coefficient, bound probe [1]: 28,700 M^−1·cm^−1 | extinction coefficient, unbound probe [1]: 30,400 M^−1·cm^−1 | increase in fluorescence intensity upon addition of non-lesion DNA hairpin [2]: ~2.5 fold | effect of equimolar pseudo AP DNA on rate of apparent oxime formation (AP site-containing DNA; 20 μM pseudo AP hairpin, 20 μM AP DNA, 5 μM CCVJ1): no effect on the rate of apparent oxime formation | effect of competing 2-deoxyribose on maximum signal (AP site-containing DNA; 1 mM deoxyribose (200 equivalents)): no effect on the maximum signal | signal retained compared to the AP DNA alone (AP site-containing DNA; 4 mM deoxyribose (800 equivalents)): 85% | effect of competing pyruvate on overall signal (AP site-containing DNA; up to 200 μM pyruvate (40 equivalents)): no significant reduction in overall signal | light-up response with small-molecule ketones and aldehydes [3]: absence of any fluorescence response; also recorded: none of them generated a significant light-up response
